Assay: xn = mol fraction of the nth substance listed

ClC1CCCCC1 + CC(C)CO
viscosity [mPa·s], 101.33 kPa
Conditions	x1 = 0.1018	x1 = 0.2015	x1 = 0.3066	x1 = 0.4073	x1 = 0.5034	x1 = 0.5996	x1 = 0.7053	x1 = 0.8003	x1 = 0.8949
298.15 K	2.771	2.342	2.035	1.835	1.687	1.597	1.525	1.5	1.5
313.15 K	1.784	1.555	1.393	1.284	1.223	1.181	1.146	1.132	1.144

CCCCC(CC)COP(=O)(O)OCC(CC)CCCC (centres undefined) + CCO
303.15 K, 101 kPa
Conditions	viscosity [mPa·s]
x1 = 0.0484	1.909
x1 = 0.086	2.633
x1 = 0.1497	3.874
x1 = 0.246	5.98
x1 = 0.3456	8.285
x1 = 0.4132	9.819
x1 = 0.5228	12.07
x1 = 0.6182	13.82
x1 = 0.7125	15.38
x1 = 0.8312	17.13
x1 = 0.9224	18.43

N + O=[N+]([O-])[O-].O=[N+]([O-])[O-].[Ca+2]
293.15 K, 101 kPa
Conditions	viscosity [mPa·s]
x2 = 0.01	0.17
x2 = 0.02	0.238
x2 = 0.042	0.355
x2 = 0.087	0.783

CCCCC(CC)COP(=O)(O)OCC(CC)CCCC (centres undefined) + CCCC(=O)O
303.15 K, 101 kPa
Conditions	viscosity [mPa·s]
x1 = 0.0532	1.784
x1 = 0.1098	2.592
x1 = 0.1892	3.578
x1 = 0.2612	4.602
x1 = 0.3278	5.698
x1 = 0.4066	7.172
x1 = 0.5002	8.886
x1 = 0.6095	11.21
x1 = 0.6884	12.9
x1 = 0.7405	14.01
x1 = 0.8096	15.38
x1 = 0.8811	16.81
x1 = 0.9342	17.79

CCCC[n+]1cc[nH]c1.O=S(=O)([N-]S(=O)(=O)C(F)(F)F)C(F)(F)F + N
Conditions	viscosity [mPa·s]
313.2 K, 101.33 kPa, x2 = 0.7076	9.866

C[N+](=O)[O-] + Cc1ccc(C)cc1
293.15 K, 101.33 kPa
Conditions	viscosity [mPa·s]
x1 = 0.1151	0.632
x1 = 0.2724	0.628
x1 = 0.4256	0.626
x1 = 0.481	0.625
x1 = 0.6051	0.625
x1 = 0.6915	0.626
x1 = 0.794	0.627
x1 = 0.8837	0.632

Cc1cccc(O)c1 + Nc1ccccc1
298.15 K, 101 kPa
Conditions	viscosity [mPa·s]
x1 = 0.3	6.799
x1 = 0.374	8.194
x1 = 0.461	9.622
x1 = 0.549	11.12
x1 = 0.631	12.2
x1 = 0.778	12.31

c1ccc(Cc2ccccc2)cc1 + c1ccccc1
302.85 K, 101 kPa
Conditions	viscosity [mPa·s]
x1 = 0.113	0.733
x1 = 0.204	0.877
x1 = 0.288	1.026
x1 = 0.523	1.502
x1 = 0.686	1.873
x1 = 0.801	2.132
x1 = 0.893	2.342

Cc1cccc(O)c1 + Cc1ccccc1
308.15 K, 101 kPa
Conditions	viscosity [mPa·s]
x1 = 0.0892	0.5693
x1 = 0.198	0.7009
x1 = 0.3227	0.9138
x1 = 0.4371	1.215
x1 = 0.5644	1.71
x1 = 0.6801	2.44
x1 = 0.7905	3.416
x1 = 0.8866	4.871
x1 = 0.9596	6.414

CCCCCCCCCCCCN + C1CCCCC1
303.15 K, 101 kPa
Conditions	viscosity [mPa·s]
x2 = 0.2093	2.31
x2 = 0.3927	1.948
x2 = 0.5029	1.709
x2 = 0.6032	1.492
x2 = 0.8037	1.116

CCCCC(CC)COP(=O)(O)OCC(CC)CCCC (centres undefined) + Clc1ccccc1
viscosity [mPa·s], 101 kPa
Conditions	x1 = 0.0374	x1 = 0.0804	x1 = 0.1303	x1 = 0.1888	x1 = 0.2587	x1 = 0.3436	x1 = 0.4481	x1 = 0.5826	x1 = 0.7584
303.15 K	0.8898	1.127	1.45	1.903	2.556	3.531	5.039	7.539	11.9
313.15 K	0.766	0.9413	1.176	1.498	1.953	2.619	3.629	5.271	8.078
323.15 K	0.6693	0.7965	0.9633	1.187	1.497	1.939	2.595	3.637	5.374

From the CheMixHub viscosity set
